According to publication PMC6193938, “Characterization of a novel AICARFT inhibitor which potently elevates ZMP and has anti-tumor activity in murine models” (Scientific Reports, 2018):
Like-named read-outs stand apart in the source and are kept apart here.

System: panel of human cell lines
Assay: In vitro proliferation assay, Cell Titer Glo, two doubling times, 298 cell lines
Format: cell-based
Conditions: Homo sapiens, read-out: ABS_IC50_VALUE
Excerpt: Cell Titer Glo measures ATP, thus the IC50s represent both the effect on purine production and cell proliferation, which are related. […] Folates are actively taken up in cells by reduced folate carrier (SLC19A1), proton-coupled folate transporter (SLC46A1), and the FOLR1 folate receptor[17]. Once inside the cell, folates are trapped by polyglutamation catalyzed by folylpolyglutamate synthetase (FPGS). […] Gene expression data for ATIC, GART, APRT, HPRT, FOLR1, SLC19A1, SLC46A1 & FPGS are shown in Fig. 2, since these genes were anticipated to predict sensitivity. […] The MDA-MB-231 cell line is reduced folate carrier (SLC19A1) negative due to epigenetic silencing.
Cells were cultured using recommended culture conditions unless noted otherwise (Supplemental Table 3). Cells were plated, dosed with compound and incubated at 37 °C for approximately 2 doubling times as determined for each cell line. Cell Titer Glo (Promega) assay was used to measure proliferation according to manufacturer’s recommendations by measuring luminescence with Flexstation3 (Molecular Devices) with 500 ms integration time. […] The % response was fit to a four-parameter logistic equation using ACTIVITYBASE 4.0 to determine the absolute IC50 values.
Cell Lines: Cell lines of adrenal gland, autonomic ganglia, biliary tract, blood ALL, blood AML, blood CML, blood hodgkin lymphoma, blood lymphoma, blood multiple myeloma, blood NHL, blood RAEB, bone, breast ER+, breast fibroblast, breast fibroblast mixed, breast HER2, breast normal, breast triple negative, cervix, CNS, endometrium, eye, fibroblast normal, kidney ns, kidney renal, large intestine, liver, liver normal, lung adenocarcinoma, lung ns, lung NSCLC, lung NSCLC mixed, lung SCLC, lung squamous, melanoma, melanoma normal, esophagus adenocarcinoma, esophagus ns, esophagus squamous, ovary, pancreas adenocarcinoma, pancreas ductal carcinoma, pancreas ns, pleura mesothelioma, prostate adenocarcinoma, prostate small cell, salivary gland, small intestine, soft tissue, stomach, testis, thyroid, thyroid squamous, umbilical vein endothelial cell normal, upper aerodigestive tract squamous, urinary tract ns, urinary tract transitional cell carcinoma, and vulva squamous origin were obtained from ATCC, CASTCC, CLS, DSMZ, ECACC, HSRRB, ICLC, JCRB, NCI, Riken and SNU cell banks. The murine A9 cell line was acquired from the ATCC (CCL-1.4).

## O=c1[nH]ccc2cc(F)c(NS(=O)(=O)c3ccc(N4CC[C@@H](O)C4)s3)cc12 [LSN3213128, N-(6-Fluoro-1-oxo-1,2-dihydroisoquinolin-7-yl)-5-[(3R)-3-hydroxypyrrolidin-1-yl]thiophene-2-sulfonamide]
NCI-H661, NCI-H661, lung
  IC50: 16.2 µM
NCI-H716, NCI-H716, large intestine
  IC50: 1.34 µM
NCI-H929, NCI-H929, haematopoietic and lymphoid tissue
  IC50: > 20 µM
NCI-H1048, NCI-H1048, lung
  IC50: > 20 µM
NCI-H1092, NCI-H1092, lung
  IC50: > 20 µM
NCI-H1105, lung
  IC50: > 20 µM
NCI-H1155, NCI-H1155, lung
  IC50: 13.6 µM
NCI-H1299, NCI-H1299, lung
  IC50: 1.32 µM
NCI-H1341, lung
  IC50: 2.83 µM
NCI-H1355, NCI-H1355, lung
  IC50: > 20 µM
NCI-H1395, NCI-H1395, lung
  IC50: 12.6 µM
NCI-H1435, NCI-H1435, lung
  IC50: > 20 µM
NCI-H1437, NCI-H1437, lung
  IC50: 1.37 µM
NCI-H1573, NCI-H1573, lung
  IC50: > 20 µM
NCI-H1581, NCI-H1581, lung
  IC50: 16.5 µM
NCI-H1618, lung
  IC50: > 20 µM
NCI-H1623, NCI-H1623, lung
  IC50: > 20 µM
NCI-H1648, NCI-H1648, lung
  IC50: > 20 µM
NCI-H1650, NCI-H1650, lung
  IC50: 8.18 µM
NCI-H1651, NCI-H1651, lung
  IC50: > 20 µM
NCI-H1666, NCI-H1666, lung
  IC50: > 20 µM
NCI-H1694, NCI-H1694, lung
  IC50: > 20 µM
NCI-H1703, NCI-H1703, lung
  IC50: > 20 µM
NCI-H1734, NCI-H1734, lung
  IC50: > 20 µM
NCI-H1781, NCI-H1781, lung
  IC50: > 20 µM
NCI-H1792, NCI-H1792, lung
  IC50: 8.57 µM
NCI-H1793, NCI-H1793, lung
  IC50: > 20 µM
NCI-H1836, NCI-H1836, lung
  IC50: 2.47 µM
NCI-H1838, NCI-H1838, lung
  IC50: > 20 µM
NCI-H1876, lung
  IC50: > 20 µM
NCI-H1930, NCI-H1930, lung
  IC50: 17.8 µM
NCI-H1944, NCI-H1944, lung
  IC50: > 20 µM
NCI-H1975, NCI-H1975, lung
  IC50: 2.15 µM
NCI-H2009, NCI-H2009, lung
  IC50: > 20 µM
NCI-H2023, NCI-H2023, lung
  IC50: > 20 µM
NCI-H2029, NCI-H2029, lung
  IC50: > 20 µM
NCI-H2030, NCI-H2030, lung
  IC50: 8.19 µM
NCI-H2052, NCI-H2052, pleura
  IC50: > 20 µM
NCI-H2066, NCI-H2066, lung
  IC50: > 20 µM
NCI-H2081, NCI-H2081, lung
  IC50: > 20 µM
NCI-H2085, lung
  IC50: > 20 µM
NCI-H2087, NCI-H2087, lung
  IC50: > 20 µM
NCI-H2122, NCI-H2122, lung
  IC50: 1.22 µM
NCI-H2126, NCI-H2126, lung
  IC50: > 20 µM
NCI-H2170, NCI-H2170, lung
  IC50: 13.7 µM
NCI-H2171, NCI-H2171, lung
  IC50: > 20 µM
NCI-H2227, lung
  IC50: > 20 µM
NCI-H2228, NCI-H2228, lung
  IC50: 7.07 µM
NCI-H2286, NCI-H2286, lung
  IC50: 17.6 µM
NCI-H2347, NCI-H2347, lung
  IC50: > 20 µM
NCI-H2405, NCI-H2405, lung
  IC50: > 20 µM
NCI-H2452, NCI-H2452, pleura
  IC50: > 20 µM
NCI-N87, NCI-N87, stomach
  IC50: 2.39 µM
NCI-SNU-5, stomach
  IC50: > 20 µM
NCI-SNU-16, stomach
  IC50: 1.18 µM
NH-6, autonomic ganglia
  IC50: > 20 µM
NMC-G1, central nervous system
  IC50: > 20 µM
NOMO-1, NOMO-1, haematopoietic and lymphoid tissue
  IC50: 2.03 µM
NUGC-3, NUGC-3, stomach
  IC50: 11.9 µM
NUGC-4, NUGC-4, stomach
  IC50: 8.38 µM
OCUM1, OCUM-1, stomach
  IC50: 16.5 µM
OE19, OE19, oesophagus
  IC50: 6.52 µM
OE33, OE33, oesophagus
  IC50: 12.7 µM
ONS-76, ONS-76, central nervous system
  IC50: 3.6 µM
OVCAR-3, OVCAR-3, ovary
  IC50: 12.7 µM
OVMANA, ovary
  IC50: 2.59 µM
P31-FUJ, haematopoietic and lymphoid tissue
  IC50: 0.71 µM
PC-3, prostate
  IC50: > 20 µM
PF-382, PF-382, haematopoietic and lymphoid tissue
  IC50: 2.13 µM
Panc 04.03, Panc 04.03, pancreas
  IC50: 5.44 µM
Pfeiffer, haematopoietic and lymphoid tissue
  IC50: 2.55 µM
QGP-1, QGP-1, pancreas
  IC50: 10.7 µM
RD, soft tissue
  IC50: 9.13 µM
RD-ES, bone
  IC50: 8.54 µM
REH, haematopoietic and lymphoid tissue
  IC50: 6.9 µM
RERF-LC-MS, lung
  IC50: 1.92 µM
RKN, ovary
  IC50: > 20 µM
RKO, large intestine
  IC50: 8.04 µM
RL95-2, RL95-2, endometrium
  IC50: > 20 µM
RL, haematopoietic and lymphoid tissue
  IC50: 0.76 µM
RMG-I, ovary
  IC50: > 20 µM
RPMI-7951, RPMI-7951, skin
  IC50: > 20 µM
RPMI-8226, RPMI-8226, haematopoietic and lymphoid tissue
  IC50: 12.6 µM
RT4, urinary tract
  IC50: > 20 µM
RT112/84, RT112/84, urinary tract
  IC50: 1.92 µM
Raji, haematopoietic and lymphoid tissue
  IC50: 7.5 µM
Rec1, REC-1, haematopoietic and lymphoid tissue
  IC50: > 20 µM
SCC-4, SCC-4, upper aerodigestive tract
  IC50: > 20 µM
SCC-9, SCC-9, upper aerodigestive tract
  IC50: > 20 µM
SCC-15, SCC-15, upper aerodigestive tract
  IC50: > 20 µM
SCC-25, SCC-25, upper aerodigestive tract
  IC50: > 20 µM
SH-10-TC, stomach
  IC50: > 20 µM
SJRH30, SJRH30, soft tissue
  IC50: 5.13 µM
SJSA-1, SJSA-1, bone
  IC50: > 20 µM
SK-BR-3, SK-BR-3, breast
  IC50: 6.52 µM
SK-CO-1, SK-CO-1, large intestine
  IC50: 12.8 µM
SK-ES1, SK-ES-1, bone
  IC50: > 20 µM
SK-HEP1, SK-HEP-1, liver
  IC50: 11.1 µM
SK-LMS-1, SK-LMS-1, soft tissue
  IC50: 0.91 µM
SK-LU-1, SK-LU-1 (lung, adenocarcinoma)
  IC50: > 20 µM
SK-MEL3, SK-MEL-3 (skin, malignant melanoma)
  IC50: > 20 µM
SK-MEL-2, SK-MEL-2 (skin, malignant melanoma)
  IC50: > 20 µM
SK-MEL-5, SK-MEL-5 (skin, melanoma)
  IC50: > 20 µM
SK-MEL-24, SK-MEL-24 (skin, malignant melanoma)
  IC50: > 20 µM
SK-MEL-28, SK-MEL-28 (skin, malignant melanoma)
  IC50: 0.47 µM
SK-MEL-31 (skin, malignant melanoma)
  IC50: > 20 µM
SK-MES-1, SK-MES-1 (lung; squamous cell carcinoma)
  IC50: 2.25 µM
SK-N-AS, SK-N-AS (brain, neuroblastoma)
  IC50: > 20 µM
SK-OV-3, SK-OV-3 (ovary, adenocarcinoma)
  IC50: > 20 µM
SNB-19, SNB19 (central nervous system, Glioblastoma)
  IC50: 0.79 µM
SNG-M (endometrium, endometrial adenocarcinoma)
  IC50: > 20 µM
SNU-182, SNU-182 (liver, hepatocellular carcinoma)
  IC50: 20.7 µM
SNU-216, SNU-216 (stomach, Human gastric carcinoma)
  IC50: > 20 µM
SNU-387, SNU-387 (liver, pleomorphic hepatocellular carcinoma)
  IC50: 27 µM
SNU-398, SNU-398 (liver, hepatocellular carcinoma)
  IC50: 16.4 µM
SNU-423, SNU-423 (liver, pleomorphic hepatocellular carcinoma)
  IC50: 21.7 µM
SNU-449, SNU-449 (liver, hepatocellular carcinoma)
  IC50: 11.3 µM
SNU-475, SNU-475 (liver, hepatocellular carcinoma)
  IC50: 24.8 µM
SNU-C1, SNU-C1 (large intestine, colon, adenocarcinoma)
  IC50: 4.55 µM
SNU-C2A (large intestine, cecum, colorectal carcinoma)
  IC50: > 20 µM
SW48, SW48 (large intestine, colon, colorectal adenocarcinoma)
  IC50: 6.86 µM
SW480, SW480 (large intestine, colon, colorectal adenocarcinoma)
  IC50: 1.97 µM
SW837, SW837 (large intestine, rectum, adenocarcinoma)
  IC50: 1.28 µM
SW1271, SW 1271 (lung; small cell lung carcinoma)
  IC50: 10.4 µM
SW1353, SW 1353 (bone, chondrosarcoma)
  IC50: > 20 µM
SW1417, SW1417 (large intestine, colon, colorectal adenocarcinoma)
  IC50: > 20 µM
SW1463, SW1463 (large intestine, rectum, colorectal adenocarcinoma)
  IC50: 15.1 µM
SW-620, SW620 (large intestine, colon, adenocarcinoma)
  IC50: > 20 µM
T84 (large intestine, colon, colorectal carcinoma)
  IC50: > 20 µM
T98G, T98G (central nervous system, glioblastoma multiforme)
  IC50: 3.62 µM
TCC-SUP, TCCSUP (urinary bladder, transitional cell carcinoma)
  IC50: 4.2 µM
TE-1 (oesophagus, esophageal squamous cell carcinoma)
  IC50: 1.08 µM
TE-5 (oesophagus, esophageal squamous cell carcinoma)
  IC50: 4.79 µM
TE-9 (oesophagus, esophageal squamous cell carcinoma)
  IC50: 1.17 µM
TE-11, TE-11 (oesophagus, esophageal squamous cell carcinoma)
  IC50: 2.02 µM
TE-15, TE-15 (oesophagus, esophageal squamous cell carcinoma)
  IC50: 0.73 µM
THP-1, THP-1 (haematopoietic and lymphoid tissue, leukemia, acute monocytic)
  IC50: 5.52 µM
TOV21G, TOV-21G (ovary, clear cell carcinoma)
  IC50: > 20 µM
TT (thyroid, carcinoma)
  IC50: 10.6 µM
Toledo, Toledo (haematopoietic and lymphoid tissue, diffuse large cell lymphoma)
  IC50: > 20 µM
U-251, U251 (central nervous system, human glioma)
  IC50: 3.02 µM
U-266, U-266 (haematopoietic and lymphoid tissue, myeloma; plasmacytoma)
  IC50: 13.4 µM
UACC-812, UACC-812 (breast, ductal carcinoma)
  IC50: > 20 µM
UMUC3, UM-UC-3 (urinary bladder, transitional cell carcinoma)
  IC50: 1.93 µM
VCaP, VCaP (prostate, prostate cancer)
  IC50: 7.74 µM
VMRC-RCZ (kidney, renal cancer)
  IC50: 7.61 µM
WM 266-4, WM-266-4 (skin, melanoma)
  IC50: > 20 µM
WM-115, WM-115 (skin, malignant melanoma)
  IC50: > 20 µM
ZR-75-30, ZR-75-30 (breast, ductal carcinoma)
  IC50: > 20 µM
